# Results reported in patent publication US5217950A, “Nisin compositions for use as enhanced, broad range bactericides” (Applied Microbiology, Inc., priority 1992, dated 1993).
# Where no end group is shown, it is not given here.
# Experiments:
# [1] = system: Listeria monocytogenes; test: bactericidal activity in milk; assay type: cell-based
# Protocol: (§1) All tests in the following examples were performed at 37° C. The efficacy of the enhanced broad range bactericides was determined by assaying bactericidal activity as measured by the percent bacterial survival after treatment with the bactericide. Generally, after incubation of a 10^7 cell per ml suspension of target species with the novel bactericide for specified lengths of time, bacteria were collected by centrifugation for 2 minutes. The bacterial pellet was washed free of the bactericide with a rescue buffer, termed herein Phage buffer (50 mM Tris-HCl buffer pH 7.8, 1 mM MgSO4, 4 mM CaCl2, 0.1M Nacl, and 0.1% gelatin), resuspended and serially diluted into Phage buffer, and 100 μl of the suspended bacteria were spread on nutrient agar plates. Surviving bacteria were determined by scoring colony forming units (CFU) after incubation for 24-48 hours at 37° C. An effective bactericide according to this invention is one which allows less than 0.1% of the initial viable count of the bacteria to survive.
# An example of where the application of nisin is limited by its available activity is illustrated by the data in Table 15B.
# (§2) Incubations were in milk at 37° C.
# [2] = system: S. typhimurium; test: bactericidal activity: percent bacterial survival after treatment, suspension in buffer; assay type: cell-based, Salmonella typhimurium
# Protocol: as §1, with “C.” for “C. An effective bactericide according to this invention is one which allows less than 0.1% of the initial viable count of the bacteria to survive.”
# The control (Test #1) is identical to the control of Example 1 (Table 1).
# [3] = system: Listeria monocytogenes; test: bactericidal activity: percent bacterial survival in Tris buffer; assay type: cell-based; settings: 20 mM Tris-HCl pH 8.0
# Protocol: as §1
# (§3) Incubations were performed in 20 mM Tris-HCl, pH at 8.0 at 37° C.
# [4] = system: Coryneform bacteria; test: as above; assay type: cell-based, mixed population of axillary Coryneform bacteria; settings: 20 mM Tris-HCl pH 8.0
# Protocol: as §1, with “C.” for “C. An effective bactericide according to this invention is one which allows less than 0.1% of the initial viable count of the bacteria to survive.”
# as §3
# [5] = system: K. pneumoniae; test: bactericidal activity: percent bacterial survival after treatment, suspension in buffer; assay type: cell-based, Klebsiella pneumoniae; settings: 20 mM Tris pH 8.0, 37° C
# Protocol: as §1, with “C.” for “C. An effective bactericide according to this invention is one which allows less than 0.1% of the initial viable count of the bacteria to survive.”
# The effect was measured as a function of percentage bacterial survival after 2 hours.
# [6] = system: Staphylococcus aureus; test: bactericidal activity: percent bacterial survival, influence of pH and EDTA; assay type: cell-based
# Protocol: as §1
# Incubations were performed in 50 mM sodium acetate buffer, pH 5.0 or 20 m
# TrisHCl buffer, pH 8.0 at 37° C.
# [7] = system: S. typhimurium on chicken muscle; test: bactericidal activity on inoculated chicken muscle, survival of unadhered cells; assay type: cell-based, Salmonella typhimurium
# Protocol: as §1
# Incubations were performed in either 50 mM sodium acetate, pH 5.0, or 20 mM Tris, pH 8.0 at 37° C.
# Cubes of chicken muscle were cleansed with sodium hypochlorite and povidone iodine prior to use. To inoculate the tissue, the cubes of chicken muscle were dipped into a 10^8 cells/ml suspension of S. typhimurium in 20 mM Tris HCl, pH 8.0. Excess moisture was removed from dipped cubes by tapping. The chicken samples were placed into sufficient buffer containing the nisin composition to cover the tissue and incubated for 2 hours at 37° C. after which the tissue was removed to sufficient Phage buffer to cover the tissue. The bacteria remaining in the test solution were collected by centrifugation, washed with Phage buffer, and combined with bacteria washed from the tissue by Phage buffer. The combined samples (termed "unadhered" cells) were serially diluted and 100 μl aliquots were plated for determination of surviving bacteria.
# (§4) Cubes of chicken muscle were cleansed with sodium hypochlorite and povidone iodine prior to use. To inoculate the tissue, the cubes of chicken muscle were dipped into a 10^8 cells/ml suspension of S. typhimurium in 20 mM Tris HCl, pH 8.0. Excess moisture was removed from dipped cubes by tapping. The tissue was placed into sufficient buffer containing the nisin compositions to cover the tissue, and incubated for 2 hours at 37° C. after which the tissue was removed to sufficient Phage buffer to cover the tissue. The bacteria remaining in the test solution were collected by centrifugation, washed with Phage buffer, and combined with bacteria washed from the tissue by Phage buffer. The combined samples (termed "unadhered" cells) were serially diluted and 100 μl aliquots were plated for determination of surviving bacteria.
# as §4, with “cleaned” for “cleansed”, “50” for “20”, “sodium acetate buffer,” for “Tris HCl,”, “5.0.” for “8.0.”, “containing” for “containing the”
# [8] = system: E. coli; test: bactericidal activity: percent bacterial survival after treatment, suspension in buffer; assay type: cell-based, Escherichia coli; settings: for Percentage E. coli Survival at 2 hours: 20 mM Tris pH 8.0, 37° C
# Protocol: as §1, with “C.” for “C. An effective bactericide according to this invention is one which allows less than 0.1% of the initial viable count of the bacteria to survive.”
# The effects of the bactericide were measured as a function of percentage bacteria survival after 2 hours.
# Incubations were performed in 20 mM Tris-HCl, […] at 37° C.
# [9] = system: Streptococcus mutans; test: bactericidal activity and kinetics: percent bacterial survival in Tris buffer; assay type: cell-based; settings: for % Survival: 1.0 mM EDTA, nisin 0, 20 mM Tris-HCl pH 7.3
# Protocol: Incubations were performed in 20 mM Tris-HCl, pH 8.0 at 37° C.
# The suspensions were incubated for various times ranging from 0.5 to 60 minutes with the bactericides. The bactericidal efficacy of the bactericides was estimated by determining the percent survival of bacteria.
# Incubations were performed in 20 mM Tris-HCl, pH 7.3 at 37° C.
# [10] = system: Streptococcus agalactiae; test: bactericidal activity in milk; assay type: cell-based
# Protocol: as §1
# However, the combination of the two agents, 0.1% monolaurin and nisin 0.2 μg/ml, is extremely potent towards S. agalactiae. […] Thus, when the application of nisin is limited by its available activity, a bactericide comprising nisin with a surfactant can be expected to be more useful.
# as §2
# [11] = system: Streptococcus mutans; test: rapid bactericidal activity in the presence of divalent cation, 10% Fetal Calf Serum; assay type: cell-based; settings: Nisin 3, no EDTA, CaCl3 0 mM
# Protocol: Incubations were performed in 10% Fetal Calf Serum at 37° C.
compound,measurement,setting,value
monooleate,% Survival 2 hr,"[1]; Monooleate 0.1%, nisin 0, 37° C",67%
same,% Survival 2 hr,"[1]; Monooleate 1.0%, nisin 0, 37° C",63%
same,bactericidal activity towards L. monocytogenes,[1]; monooleate by itself,no bactericidal activity
O=C([O-])CN(CCN(CC(=O)[O-])CC(=O)O)CC(=O)O.[Na+].[Na+] [EDTA],% Survival at 2 hours,"[2]; EDTA 1.0 mM, BSA 1.0%, nisin 0, 20 mM Tris pH 8.0",63%
same,% Survival at 2 hours,"[2]; EDTA 2.0 mM, nisin 0, 20 mM Tris pH 8.0, 37° C",8.7%
same,% Survival at 2 hours,"[2]; EDTA 10 mM, nisin 0, 20 mM Tris pH 8.0, 37° C",14%
same,Percentage S. typhimurium Survival at 3 hours,"[2]; EDTA 20 mM, nisin 0, 20 mM Tris pH 8.0, 37° C",2.5%
same,% Survival at 2 hours,"[2]; EDTA 50 mM, nisin 0, 50 mM sodium acetate pH 5.0, 37° C",3.5%
same,% Survival at 2 hours,"[2]; EDTA 100 mM, nisin 0, 20 mM Tris pH 8.0, 37° C",45%
same,% Survival after 2 hr,"[3]; EDTA 1.0 mM, nisin 0",84%
same,% Survival 2 hr,"[4]; EDTA 0.3 mM, nisin 0",4.6%
same,% Survival 2 hr,"[4]; EDTA 1.0 mM (last column, after 3.0), nisin 0",36%
same,% Survival 2 hr,"[4]; EDTA 1.0 mM, nisin 0",3.6%
same,% Survival 2 hr,"[4]; EDTA 3.0 mM, nisin 0",8%
same,% Survival at 2 hours,"[5]; EDTA 20 mM, nisin 0",22%
same,% Survival 2 hr,"[6]; EDTA 0.3 mM, nisin 0, pH 8.0",100%
same,% Survival 2 hr,"[6]; EDTA 1.0 mM, nisin 0, pH 8.0",81%
same,% Survival 2 hr,"[6]; EDTA 3.0 mM, nisin 0, pH 5.0",100%
same,% Survival 2 hr,"[6]; EDTA 3.0 mM, nisin 0, pH 8.0",100%
same,% Survival 2 hr,"[6]; EDTA 10 mM, nisin 0, pH 8.0",100%
same,% Survival 2 hr,"[6]; EDTA 30 mM, nisin 0, pH 8.0",100%
same,% Survival at 2 hours,"[7]; EDTA 1.0 mM, BSA 1.0%, nisin 0, pH 8.0",27%
same,% Survival at 2 hours (unadhered cells),"[7]; EDTA 10 mM, nisin 0, 20 mM Tris pH 8.0",5.2%
same,% Survival at 2 hours (unadhered cells),"[7]; EDTA 10 mM, nisin 0, 50 mM sodium acetate pH 5.0 (Table 7)",6.4%
same,% survival at 1 min.,"[8]; EDTA 1.0 mM, nisin 0, 20 mM Tris-HCl pH 7.0",100%
same,% Survival,[9]; incubation 3 minutes,100%
same,% Survival,[9]; incubation 60 minutes,100%
"CCCCCCCCCCCC(=O)OCC(O)CO (stereo not drawn) [Monolaurin, monolaurin]",% survival at 2 h,"[10]; Monolaurin 0.01%, nisin 0, 37° C",100%
same,% survival at 2 h,"[10]; Monolaurin 0.1%, nisin 0, 37° C",4.5%
"nisin (ITSISLCTPGCKTGALMGCNMKTATCHCSIHVSK; cysteine pairing not given here; also: lantibiotic, modifications not placed; UniProt P13068 24-57, looked up) [polypeptide bacteriocin with antimicrobial properties produced by strains of Streptococcus lactis]",% Survival at 2 hours,"[2]; nisin 10 μg/ml, EDTA 0, BSA 0, Tris buffer (Table 8)",51.3%
same,Percentage S. typhimurium Survival at 3 hours,"[2]; nisin 50 μg/ml, EDTA 0, 20 mM Tris pH 8.0, 37° C",7.0%
same,% Survival at 2 hours,"[2]; nisin 100 μg/ml, EDTA 0, BSA 0, Tris buffer (Table 8)",1.6%
same,Percentage S. typhimurium Survival at 3 hours,"[2]; nisin 100 μg/ml, EDTA 0, 20 mM Tris pH 8.0, 37° C",1.6%
same,% Survival at 2 hours,"[2]; nisin 100 μg/ml, EDTA 0, 20 mM Tris pH 8.0, 37° C (Table 6)",4%
same,% Survival at 2 hours,"[2]; nisin 100 μg/ml, EDTA 0, 50 mM sodium acetate pH 5.0, 37° C",0.6%
same,% survival at 1 min.,[11],2.9%
same,% survival at 2 h,"[10]; nisin 0.02 μg/ml, Monolaurin 0, 37° C",100%
same,% survival at 2 h,"[10]; nisin 0.2 μg/ml, Monolaurin 0, 37° C",2.2%
same,% Survival after 2 hr,"[3]; nisin 3.0 μ/ml, EDTA 0",0.71%
same,% Survival 2 hr,"[4]; nisin 3 μg/ml, EDTA 0",0.22%
same,% Survival at 2 hours,"[5]; nisin 100 μg/ml, EDTA 0",50%
same,% Survival at 2 hours,"[5]; nisin 300 μg/ml, EDTA 0",38%
same,% Survival 2 hr,"[1]; nisin 100 μg/ml, Monooleate 0, 37° C",0.56%
same,% Survival 2 hr,"[6]; nisin 3.0 μg/ml, EDTA 0, pH 5.0",0.6%
same,% Survival 2 hr,"[6]; nisin 3.0 μg/ml, EDTA 0, pH 8.0",7.4%
same,% Survival at 2 hours (unadhered cells),"[7]; nisin 300 μg/ml, EDTA 0, 1% Bovine serum albumin, 20 mM Tris pH 8.0",0.02%
same,% Survival at 2 hours (unadhered cells),"[7]; nisin 300 μg/ml, EDTA 0, 20 mM Tris pH 8.0",7.5%
same,% Survival at 2 hours (unadhered cells),"[7]; nisin 300 μg/ml, EDTA 0, 50 mM sodium acetate pH 5.0",0.1%
same,Percentage E. coli Survival at 2 hours,"[8]; nisin 30 μg/ml, EDTA 0, Triton X-100 0",27%
same,Percentage E. coli Survival at 2 hours,"[8]; nisin 100 μg/ml, EDTA 0, Triton X-100 0",25%
same,Percentage E. coli Survival at 2 hours,"[8]; nisin 300 μg/ml, EDTA 0, Triton X-100 0",8.5%
same,% Survival after 2 hr,"[9]; nisin 0.1 μg/ml, EDTA 0, 20 mM Tris-HCl pH 8.0",4.3%
Triton X-100,Percentage E. coli Survival at 2 hours,"[8]; Triton X-100 1.0%, nisin 0, EDTA 0",100%
same,bactericidal activity towards E. coli,"[8]; Triton X-100 1.0%, tests #3 and #4 of Table 4",no significant bactericidal activity
